# Earlier results in PMC7849180 (Frontiers in Pharmacology, 2020).
# Like-named read-outs stand apart in the source and are kept apart here.
# Key:
# [1] = system: myelofibrosis; set-up: method as in RA Abdelrahman et. al.; conditions: ref RA Abdelrahman et. al., cited from earlier work
# [2] = system: myelofibrosis; conditions: ref Momelotinib extension study; cited from earlier work
# [3] = system: myelofibrosis; conditions: cited from earlier work
# [4] = 150 mg bid, ref Momelotinib Phase I/II
# [5] = 150 mg qd, ref Momelotinib Phase I/II
# [6] = 300 mg qd, ref Momelotinib Phase I/II
# [7] = Grade 1, ref Momelotinib Phase I/II
# [8] = Grade 2, ref Momelotinib Phase I/II
# [9] = Grade 3, ref Momelotinib Phase I/II
# [10] = Grade 4, ref Momelotinib Phase I/II
# [11] = Total (n=166), ref Momelotinib Phase I/II
# [12] = all cases (n=166), ref Momelotinib Phase I/II
structure (smiles),measurement,setting,value
N#CCNC(=O)c1ccc(-c2ccnc(Nc3ccc(N4CCOCC4)cc3)n2)cc1 [Momelotinib],CR,[1]; 2013 IWG-MRT criteria,0 (0%) n (%)
same,Clinical Improvement (CI),[1]; 2013 IWG-MRT criteria,34 (57%) n (%)
same,PR,[1]; 2013 IWG-MRT criteria,1 (1.7%) n (%)
same,patients with symptom improvement,[1]; 2013 IWG-MRT-ELN criteria,57%
same,Anemia Response,[1],42 (19; 45%) n (responses; %)
same,Anemia Response in Transfusion-Dependent Patients,[1],32 (17; 53%) n (responses; %)
same,Spleen Response,[1],57 (24; 42%) Evaluables (responses; %)
same,anemia response rate,[1],45%
same,spleen volume reduction response rate,[1],42%
same,First Dose Effect: hypotension,[2],5%
same,First Dose Effect: transient dizziness,[2],10%
same,Grade 3/4 thrombocytopenia,[2],30%
same,median maintenance duration of anemia response,[2],"1,042 days"
same,median spleen response duration,[2],785 days
same,patients with anemia response,[2],53%
same,patients with spleen response (IWG-MRT),[2],39%
same,Average Reduction in Spleen Volume at Month 6,[3]; [4],-46%
same,Hemoglobin Elevation of 2 g/dL or Above (8 Weeks),[3]; [4],14%
same,IWG-MRT Anemia Response Rate,[3]; [4],36%
same,Spleen Response,[3]; [4],38%
same,Transfusion Independence Rate (12 Weeks),[3]; [4],57%
same,Average Reduction in Spleen Volume at Month 6,[3]; [5],-36%
same,Hemoglobin Elevation of 2 g/dL or Above (8 Weeks),[3]; [5],11%
same,IWG-MRT Anemia Response Rate,[3]; [5],48%
same,Spleen Response,[3]; [5],32%
same,Transfusion Independence Rate (12 Weeks),[3]; [5],63%
same,Average Reduction in Spleen Volume at Month 6,[3]; [6],-38%
same,Hemoglobin Elevation of 2 g/dL or Above (8 Weeks),[3]; [6],8%
same,IWG-MRT Anemia Response Rate,[3]; [6],55%
same,Spleen Response,[3]; [6],39%
same,Transfusion Independence Rate (12 Weeks),[3]; [6],75%
same,ALP Elevation,[3]; [7],5%
same,ALT Elevation,[3]; [7],9%
same,AST Elevation,[3]; [7],9%
same,Amylase Elevation,[3]; [7],7%
same,"Anemia, drug-related AE",[3]; [7],2%
same,Bilirubin Elevation,[3]; [7],7%
same,Creatinine Elevation,[3]; [7],5%
same,"Diarrhea, drug-related AE",[3]; [7],18%
same,"Headache, drug-related AE",[3]; [7],14%
same,"Leukopenia, drug-related AE",[3]; [7],2%
same,Lipase Elevation,[3]; [7],8%
same,"Nausea, drug-related AE",[3]; [7],20%
same,"Neutropenia, drug-related AE",[3]; [7],< 1%
same,"Peripheral Neuropathy, drug-related AE",[3]; [7],25%
same,"Thrombocytopenia, Baseline Platelet > 150 x 109/L (n=97)",[3]; [7],18%
same,"Thrombocytopenia, drug-related AE",[3]; [7],14%
same,"Vertigo, drug-related AE",[3]; [7],22%
same,ALP Elevation,[3]; [8],1%
same,ALT Elevation,[3]; [8],3%
same,AST Elevation,[3]; [8],2%
same,Amylase Elevation,[3]; [8],2%
same,"Anemia, drug-related AE",[3]; [8],2%
same,Bilirubin Elevation,[3]; [8],2%
same,Creatinine Elevation,[3]; [8],3%
same,"Diarrhea, drug-related AE",[3]; [8],4%
same,"Leukopenia, drug-related AE",[3]; [8],< 1%
same,Lipase Elevation,[3]; [8],< 1%
same,"Nausea, drug-related AE",[3]; [8],< 1%
same,"Neutropenia, drug-related AE",[3]; [8],2%
same,"Peripheral Neuropathy, drug-related AE",[3]; [8],2%
same,"Thrombocytopenia, Baseline Platelet > 150 x 109/L (n=97)",[3]; [8],1%
same,"Thrombocytopenia, drug-related AE",[3]; [8],8%
same,"Vertigo, drug-related AE",[3]; [8],1%
same,ALP Elevation,[3]; [9],1%
same,ALT Elevation,[3]; [9],2%
same,AST Elevation,[3]; [9],1%
same,"Anemia, drug-related AE",[3]; [9],2%
same,"Headache, drug-related AE",[3]; [9],1%
same,Lipase Elevation,[3]; [9],4%
same,"Neutropenia, drug-related AE",[3]; [9],1%
same,"Thrombocytopenia, Baseline Platelet > 150 x 109/L (n=97)",[3]; [9],9%
same,"Thrombocytopenia, drug-related AE",[3]; [9],17%
same,"Leukopenia, drug-related AE",[3]; [10],< 1%
same,"Neutropenia, drug-related AE",[3]; [10],2%
same,"Thrombocytopenia, Baseline Platelet > 150 x 109/L (n=97)",[3]; [10],1%
same,"Thrombocytopenia, drug-related AE",[3]; [10],7%
same,Hemoglobin Elevation of 2 g/dL or Above (8 Weeks),[3]; [11],13%
same,IWG-MRT Anemia Response Rate,[3]; [11],48%
same,Transfusion Independence Rate (12 Weeks),[3]; [11],68%
same,Average Reduction in Spleen Volume at Month 6,[3]; [12],-38%
same,Spleen Response,[3]; [12],37%
same,transfusion dependent patients with non-transfusion dependent duration of at least 12 weeks,"[3]; n=33, ref Momelotinib Phase I/II",70%
same,patients with improvement of anemia,[3]; ref Momelotinib Phase I/II,59%
same,symptom controlled: bone pain,[3]; ref Momelotinib Phase I/II,33%
same,symptom controlled: cough,[3]; ref Momelotinib Phase I/II,29%
same,symptom controlled: fever,[3]; ref Momelotinib Phase I/II,100%
same,symptom controlled: night sweat,[3]; ref Momelotinib Phase I/II,57%
same,symptom controlled: pruritus,[3]; ref Momelotinib Phase I/II,52%
